Measured values reported in ChEMBL document CHEMBL4346705, “(±)-trans-Dihydronarciclasine and (±)-trans-dihydrolycoricidine analogues modified in their ring A: Evaluation of their anticancer activity and a SAR study” (2019).

Assays:
Type in all cases: functional
SK-MEL-5 = assay: Antiproliferative activity against human SK-MEL-5 cells assessed as cell viability at 10^-5 M incubated for 48 hrs by sulforhodamine B assay relative to control; conditions: SK-MEL-5, 48 h, read-out: Activity
NCI-H460 = assay: Antiproliferative activity against human NCI-H460 cells assessed as cell viability at 10^-5 M incubated for 48 hrs by sulforhodamine B assay relative to control; conditions: NCI-H460, 48 h, read-out: Activity
RXF 393 = assay: Antiproliferative activity against human RXF393 cells assessed as cell viability at 10^-5 M incubated for 48 hrs by sulforhodamine B assay relative to control; conditions: RXF 393, 48 h, read-out: Activity
PC-3 = assay: Antiproliferative activity against human PC3 cells assessed as cell viability at 10^-5 M incubated for 48 hrs by sulforhodamine B assay relative to control; conditions: PC-3, 48 h, read-out: Activity
CCRF-CEM = assay: Antiproliferative activity against human CCRF-CEM cells assessed as cell viability at 10^-5 M incubated for 48 hrs by sulforhodamine B assay relative to control; conditions: read-out: Activity
SNB-19 = assay: Antiproliferative activity against human SNB19 cells assessed as cell viability at 10^-5 M incubated for 48 hrs by sulforhodamine B assay relative to control; conditions: SNB-19, 48 h, read-out: Activity
OVCAR-8 = assay: Antiproliferative activity against human OVCAR8 cells assessed as cell viability at 10^-5 M incubated for 48 hrs by sulforhodamine B assay relative to control; conditions: OVCAR-8, 48 h, read-out: Activity
U-251 = assay: Antiproliferative activity against human U251 cells assessed as cell viability at 10^-5 M incubated for 48 hrs by sulforhodamine B assay relative to control; conditions: U-251, 48 h, read-out: Activity
SF-268 = assay: Antiproliferative activity against human SF268 cells assessed as cell viability at 10^-5 M incubated for 48 hrs by sulforhodamine B assay relative to control; conditions: SF-268, 48 h, read-out: Activity
MDA-MB-231 = assay: Antiproliferative activity against human MDA-MB-231 cells assessed as cell viability at 10^-5 M incubated for 48 hrs by sulforhodamine B assay relative to control; conditions: MDA-MB-231, 48 h, read-out: Activity
Hs-578T = assay: Antiproliferative activity against human Hs 578T cells assessed as cell viability at 10^-5 M incubated for 48 hrs by sulforhodamine B assay relative to control; conditions: read-out: Activity
NCI-H322M = assay: Antiproliferative activity against human NCI-H322M cells assessed as cell viability at 10^-5 M incubated for 48 hrs by sulforhodamine B assay relative to control; conditions: read-out: Activity
K562 = assay: Antiproliferative activity against human K562 cells assessed as cell viability at 10^-5 M incubated for 48 hrs by sulforhodamine B assay relative to control; conditions: K562, 48 h, read-out: Activity
SNB-75 = assay: Antiproliferative activity against human SNB75 cells assessed as cell viability at 10^-5 M incubated for 48 hrs by sulforhodamine B assay relative to control; conditions: SNB-75, 48 h, read-out: Activity
MOLT-4 = assay: Antiproliferative activity against human MOLT4 cells assessed as cell viability at 10^-5 M incubated for 48 hrs by sulforhodamine B assay relative to control; conditions: MOLT-4, 48 h, read-out: Activity
Malme-3M = assay: Antiproliferative activity against human MALME-3M cells assessed as cell viability at 10^-5 M incubated for 48 hrs by sulforhodamine B assay relative to control; conditions: read-out: Activity
HOP-62 = assay: Antiproliferative activity against human HOP62 cells assessed as cell viability at 10^-5 M incubated for 48 hrs by sulforhodamine B assay relative to control; conditions: HOP-62, 48 h, read-out: Activity
SR = assay: Antiproliferative activity against human SR cells assessed as cell viability at 10^-5 M incubated for 48 hrs by sulforhodamine B assay relative to control; conditions: read-out: Activity
UACC-62 = assay: Antiproliferative activity against human UACC62 cells assessed as cell viability at 10^-5 M incubated for 48 hrs by sulforhodamine B assay relative to control; conditions: UACC-62, 48 h, read-out: Activity
HCT-15 = assay: Antiproliferative activity against human HCT15 cells assessed as cell viability at 10^-5 M incubated for 48 hrs by sulforhodamine B assay relative to control; conditions: HCT-15, 48 h, read-out: Activity
KM12 = assay: Antiproliferative activity against human KM12 cells assessed as cell viability at 10^-5 M incubated for 48 hrs by sulforhodamine B assay relative to control; conditions: KM12, 48 h, read-out: Activity
SN12C = assay: Antiproliferative activity against human SN12C cells assessed as cell viability at 10^-5 M incubated for 48 hrs by sulforhodamine B assay relative to control; conditions: read-out: Activity
A498 = assay: Antiproliferative activity against human A498 cells assessed as cell viability at 10^-5 M incubated for 48 hrs by sulforhodamine B assay relative to control; conditions: A498, 48 h, read-out: Activity
ACHN = assay: Antiproliferative activity against human ACHN cells assessed as cell viability at 10^-5 M incubated for 48 hrs by sulforhodamine B assay relative to control; conditions: read-out: Activity
LOX IMVI = assay: Antiproliferative activity against human LOXIMVI cells assessed as cell viability at 10^-5 M incubated for 48 hrs by sulforhodamine B assay relative to control; conditions: read-out: Activity
HCT-116 = assay: Antiproliferative activity against human HCT116 cells assessed as cell viability at 10^-5 M incubated for 48 hrs by sulforhodamine B assay relative to control; conditions: HCT-116, 48 h, read-out: Activity
IGROV-1 = assay: Antiproliferative activity against human IGROV1 cells assessed as cell viability at 10^-5 M incubated for 48 hrs by sulforhodamine B assay relative to control; conditions: IGROV-1, 48 h, read-out: Activity
MDA-MB-468 = assay: Antiproliferative activity against human MDA-MB-468 cells assessed as cell viability at 10^-5 M incubated for 48 hrs by sulforhodamine B assay relative to control; conditions: MDA-MB-468, 48 h, read-out: Activity
TK-10 = assay: Antiproliferative activity against human TK10 cells assessed as cell viability at 10^-5 M incubated for 48 hrs by sulforhodamine B assay relative to control; conditions: TK-10, 48 h, read-out: Activity
786-0 = assay: Antiproliferative activity against human 786-0 cells assessed as cell viability at 10^-5 M incubated for 48 hrs by sulforhodamine B assay relative to control; conditions: 786-0, 48 h, read-out: Activity
HL-60(TB) = assay: Antiproliferative activity against human HL-60(TB) cells assessed as cell viability at 10^-5 M incubated for 48 hrs by sulforhodamine B assay relative to control; conditions: HL-60, 48 h, read-out: Activity
HT-29 = assay: Antiproliferative activity against human HT-29 cells assessed as cell viability at 10^-5 M incubated for 48 hrs by sulforhodamine B assay relative to control; conditions: HT-29, 48 h, read-out: Activity

Row | Compound | viability at 10 µM (SK-MEL-5) | viability at 10 µM (NCI-H460) | viability at 10 µM (RXF 393) | viability at 10 µM (PC-3) | viability at 10 µM (CCRF-CEM) | viability at 10 µM (SNB-19) | viability at 10 µM (OVCAR-8) | viability at 10 µM (U-251) | viability at 10 µM (SF-268) | viability at 10 µM (MDA-MB-231) | viability at 10 µM (Hs-578T) | viability at 10 µM (NCI-H322M) | viability at 10 µM (K562) | viability at 10 µM (SNB-75) | viability at 10 µM (MOLT-4) | viability at 10 µM (Malme-3M) | viability at 10 µM (HOP-62) | viability at 10 µM (SR) | viability at 10 µM (UACC-62) | viability at 10 µM (HCT-15) | also measured
1 | O=C1NC2C(CC(O)C(O)C2O)c2cc3c(cc21)OCCO3 (racemic) | 102% | 107% | 116% | 103% | 106% | 102% | 107% | 101% | 101% | 109% | 96.9% | 104% | 104% | 98.3% | 103% | 105% | 103% | 107% | 103% | 103% | viability at 10 µM (KM12): 108%; viability at 10 µM (SN12C): 105%; viability at 10 µM (A498): 108%; viability at 10 µM (ACHN): 105%; viability at 10 µM (LOX IMVI): 97.8%; viability at 10 µM (HCT-116): 95.5%; viability at 10 µM (IGROV-1): 103%; viability at 10 µM (MDA-MB-468): 107%; viability at 10 µM (TK-10): 103%; viability at 10 µM (786-0): 102%; viability at 10 µM (HL-60(TB)): 101%; viability at 10 µM (HT-29): 105%
2 | CCCOc1cc2c(cc1OCC)C1CC(O)C(O)C(O)C1NC2=O (racemic) | 100% | 107% | 109% | 97.1% | 107% | 105% | 104% | 98.5% | 97.6% | 118% | 96.9% | 104% | 105% | 95.3% | 104% | 108% | 104% | 116% | 117% | 112% | viability at 10 µM (KM12): 108%; viability at 10 µM (SN12C): 112%; viability at 10 µM (A498): 115%; viability at 10 µM (ACHN): 107%; viability at 10 µM (LOX IMVI): 96.7%; viability at 10 µM (HCT-116): 101%; viability at 10 µM (IGROV-1): 103%; viability at 10 µM (MDA-MB-468): 112%; viability at 10 µM (TK-10): 99%; viability at 10 µM (786-0): 101%; viability at 10 µM (HL-60(TB)): 101%; viability at 10 µM (HT-29): 107%
3 | O=C1NC2C(CC(O)C(O)C2O)c2cc3c(c(O)c21)OCO3 (racemic) | -72.7% | -15.1% | -37.3% | -8.66% | 2.84% | -8.68% | -7.71% | -10.5% | -4.43% | -27.9% | -14.2% | -14.7% | 1.86% | -25.3% | -6.14% | -48.7% | -18.9% | 6.14% | -48.4% | 1.81% | viability at 10 µM (KM12): -11.5%; viability at 10 µM (SN12C): -18.4%; viability at 10 µM (A498): -53.4%; viability at 10 µM (ACHN): -45.5%; viability at 10 µM (LOX IMVI): -48.8%; viability at 10 µM (HCT-116): -1.49%; viability at 10 µM (IGROV-1): -7.85%; viability at 10 µM (MDA-MB-468): -45.8%; viability at 10 µM (TK-10): -12.6%; viability at 10 µM (786-0): -10.8%; viability at 10 µM (HL-60(TB)): -37.8%; viability at 10 µM (HT-29): -14.9%
